Assays:
[1] = DPPH radical scavenging assay; details: for EC50: ethanol, absorbance at 517 nm, 30 min, mean ± SEM, three experiments
Experimental: The antioxidant activity of T1 and its hydroxylated derivatives T2–6 was evaluated via DPPH assay, which is based on the ability of the stable DPP· radical species to be converted in its diamagnetic form (DPPH) by accepting an H· from the tested compound. […] From the evaluation of the relative decrease in absorbance at different concentrations of each tested compound, the antioxidant activities were evaluated by reporting their EC50 values, as shown in Table 1.
(§1) Radical scavenging activities were measured with DPPH and ABTS radical scavenging assays. […] In brief, for the DPPH antioxidant assay procedure, each test compound was dissolved in DMSO at 1.0 mM concentration and then diluted with absolute ethanol in the 500–2.0 µM concentration range. A solution of the DPPH radical (0.1 mM, absolute ethanol) was freshly prepared, stored in the dark, and used within a few hours. Each test solution (1500 µL) was vigorously mixed to an equal volume of DPPH inside a cuvette, and the molecular absorbance at 517 nm was recorded for 30 min. Each test was evaluated in three independent experiments. Ascorbic acid was used as the reference compound. For the ABTS method, based on the capacity of an antioxidant to scavenge the free ABTS^+ generated in the aqueous phase by reacting with a strong oxidizing, the free radical ABTS was produced by reacting 7 mM ABTS with 2.45 mM potassium persulfate in aqueous solution and kept in darkness at room temperature for 24 h before use. Samples of each compound (10 µL) were added to 990 µL of ABTS, and the reduction of the blue-green radical ABTS by hydrogen-donating antioxidants was evaluated by measuring the absorbance at 734 nm after 1 min incubation. The 6-hydroxy-2,5,7,8-tetramethylchromane-2-carboxylic acid (Trolox) was used as the antioxidant standard.

[2] = ABTS radical scavenging assay; details: absorbance at 734 nm after 1 min; mean ± SEM, three experiments
Experimental: as §1

[3] = biological target: mushroom tyrosinase; assay: Tyrosinase inhibition assay (L-DOPA, dopachrome at 492 nm; Lineweaver–Burk plots); format: biochemical; details: for IC50: L-DOPA 0.5 mM, pH 6.8, 37 °C, mean ± SD, three experiments; for Ki: secondary plot of slope, read-out: Ki (inhibitor binding with free enzyme); for inhibition mode: Lineweaver–Burk plots, L-DOPA
Experimental: The inhibition of mushroom tyrosinase was evaluated as previously described with slight modifications. A mixture containing 50 mM phosphoric acid buffer solution (pH 6.8), a solution of mushroom tyrosinase (72 U/mL final concentration; Sigma Chemical Co., Milan, Italy), and DMSO with or without the sample were incubated at 37 °C for 10 min. Then, L-DOPA solution (0.5 mM final) was added, and the reaction was monitored following the molecular absorbance at 492 nm that resulted from the formation of the dopachrome product. Measurements were performed using a FLUOstar OPTIMA (BMG Labtech, Offenburg, Germany). […] The inhibition mode was analysed using the Lineweaver–Burk plots.

[4] = Potentiometric and spectrophotometric titrations (protonation constants, speciation); format: physicochemical; details: for Logβ / pK: 25 °C, NaCl 0.1 M; for species present at pH of the enzymatic inhibitory studies: pH 6.8
Experimental: Potentiometric titrations were performed in a thermostated vessel at 25 °C in 0.1 M ionic strength (NaCl) using a Mettler-Toledo Seven Compact pH/Ion-meter and equipped with a Mettler-Toledo InLab Micro Pro combined glass electrode with an integrated temperature probe. The glass electrode was calibrated daily and checked using the GLEE software package. UV–visible (UV–Vis) measurements were carried out with an Agilent Cary 60 spectrophotometer using a 0.1 cm quartz cuvette. Protonation constants of the studied molecules were determined via spectrophotometric and potentiometric titrations. Solutions of ligands were prepared daily by dissolving a suitable amount of the compound in DMSO (concentration ≈ 12 mM) prior to the required dilution in 0.1 M NaCl (final DMSO content 1% V/V, concentration ≈ 1.2∙10^−4 M). Four HCl equivalents for T1, five for T2–4, and six for T5–6 were added before titrating with an NaOH standard solution. Potentiometric and spectrophotometric data were simultaneously analysed using the Hyperquad 2006 software package. Speciation diagrams were obtained using Hyss 2009 program with the spectrophotometric data. The number of linearly independent absorbing species was found by applying the eigenvalue analysis to the absorbance data matrix.

[5] = Cell viability assay (MTT); format: cell-based, Murine; details: mouse, B16F10 melanoma cells, 100 μM, percentage of control
Experimental: (§2) The cellular cytotoxicity of compound T6 was investigated using a 3-(4,5-dimethylthiazol-2-yl)-2,5-diphenil-tetrazolium bromide (MTT) assay. Murine melanoma B16F10 cells were seeded in 96-well plates at a density of 5 × 10^3 cells/well and cultured in Dulbecco’s Modified Eagle Medium (DMEM) with 10% fetal bovine serum at 37 °C in a humidified atmosphere with 5% CO2. The B16F10 cell line was exposed for 48 h to compound T6 at concentrations ranging from 4 to 100 μM. After incubation, culture supernatants were removed and exchanged with a medium containing 0.5 mg/mL MTT. Then, after 3 h of incubation at 37 °C, the cells were lysed with 100 μL of DMSO. The absorbance was determined at 560 nm using a microplate reader (Multiskan FC-Thermo Scientific Inc. Waltham, MA, USA).

[6] = test system: B16F10 cells; assay: Cell viability assay (MTT); format: cell-based, Murine; details: 48 h
Experimental: as §2

[7] = L + H^+ ⇌ HL (first protonation)

Compound | EC50 [1] | EC50 [2] | IC50 [3] | Logβ ([4]; L + 2H^+ ⇌ H2L) | Logβ ([4]; L + 3H^+ ⇌ H3L) | Logβ [4, 7] | pK [4, 7] | pK ([4]; step to H2L) | pK ([4]; step to H3L) | Logβ ([4]; L + 4H^+ ⇌ H4L) | pK ([4]; step to H4L) | melting point | also measured
O=C1O[C@H]([C@@H](O)CO)C(O)=C1O [Ascorbic Acid, Ascorbic acid, reference compound] | 18.6 ± 0.6 µM | – | – | – | – | – | – | – | – | – | – | – | –
C/C(=N\NC(N)=S)c1cc2ccccc2oc1=O [T1, (1E)-2-(1-(2-oxo-2H-chromen-3-yl)ethylidene)hydrazine-1-carbothioamide] | > 250 µM | 72 ± 6 µM | 4 ± 2 µM | 13.47 (9) | 17.45 (8) | 8.46 (9) | 8.5 | 5.0 | 4.0 | – | – | – | Ki ([3]; L-DOPA substrate): 0.85 µM; inhibition mode [3]: competitive inhibition; species present in blood plasma ([4]; pH 7.4): neutral form (as HL)
C/C(=N\NC(N)=S)c1cc2cc(O)ccc2oc1=O [T2, (1E)-2-(1-(6-hydroxy-2-oxo-2H-chromen-3-yl)ethylidene)hydrazine-1-carbothioamide] | > 250 µM | 25.7 ± 0.4 µM | 14 ± 7 µM | 17.24 (6) | 22.4 (1) | 10.20 (8) | 10.2 | – | 5.4 | 26.7 (1) | 4.3 | 222 to 224 °C (dec.) | –
C/C(=N\NC(N)=S)c1cc2ccc(O)cc2oc1=O [T3, (1E)-2-(1-(7-hydroxy-2-oxo-2H-chromen-3-yl)ethylidene)hydrazine-1-carbothioamide] | > 250 µM | 36 ± 1 µM | 5 ± 2 µM | 17.6 (1) | 23.26 (7) | 10.5 (1) | 10.5 | 7.1 | 5.7 | 26.7 (1) | 3.4 | – | –
C/C(=N\NC(N)=S)c1cc2cccc(O)c2oc1=O [T4, (1E)-2-(1-(8-hydroxy-2-oxo-2H-chromen-3-yl)ethylidene)hydrazine-1-carbothioamide] | 28 ± 2 µM | 21.8 ± 0.8 µM | 5.7 ± 0.8 µM | 17.26 (1) | 22.94 (5) | 10.4 (1) | 10.4 | 6.9 | 5.7 | 26.5 (2) | 3.6 | 208 to 210 °C (dec.) | radical scavenging / antioxidant activity in DPPH assay (in words) ([1]; in comparison with ascorbic acid): modest antioxidant activity
C/C(=N\NC(N)=S)c1cc2cc(O)c(O)cc2oc1=O [T5, (1E)-2-(1-(6,7-dihydroxy-2-oxo-2H-chromen-3-yl)ethylidene)hydrazine-1-carbothioamide] | 7.1 ± 0.3 µM | 9 ± 1 µM | 6 ± 2 µM | 18.46 (9) | 24.76 (7) | 10.7 (1) | 10.7 | 7.8 | 6.3 | 29.50 (6) | 4.7 | 228 to 230 °C (dec.) | species present at pH of the enzymatic inhibitory studies [4]: monoanionic form, H2L^-
C/C(=N\NC(N)=S)c1cc2ccc(O)c(O)c2oc1=O [T6, (1E)-2-(1-(7,8-dihydroxy-2-oxo-2H-chromen-3-yl)ethylidene)hydrazine-1-carbothioamide] | 17.9 ± 0.4 µM | 8.8 ± 0.4 µM | 4.1 ± 0.7 µM | 19.3 (1) | 25.1 (1) | 10.5 (2) | 10.5 | 8.8 | 5.8 | 29.5 (1) | 4.4 | 228 to 230 °C (dec.) | Kis (inhibitor binding with enzyme–substrate complex) ([3]; L-DOPA substrate, secondary plot of 1/Vmax): 10.65 µM; Ki ([3]; L-DOPA substrate): 5.88 µM; inhibition mode [3]: mixed-type inhibitor; species present at pH of the enzymatic inhibitory studies [4]: monoanionic form, H2L^-; viability at 48 h, 100 µM [5]: > 90%; cytotoxic effect (in words) ([6]; 4 μM): no cytotoxic effect; cytotoxicity (in words) ([6]; 4–100 μM): not cytotoxic
Cc1c(C)c2c(c(C)c1O)CCC(C)(C(=O)O)O2 (stereo not drawn) [Trolox, 6-hydroxy-2,5,7,8-tetramethylchromane-2-carboxylic acid, reference compound] | – | 13 ± 1 µM | – | – | – | – | – | – | – | – | – | – | –

Source: paper PMC9861830, “Hydroxylated Coumarin-Based Thiosemicarbazones as Dual Antityrosinase and Antioxidant Agents” (International Journal of Molecular Sciences, 2023)
